The target of assay [1] is Human EP4 (Homo sapiens, UniProt P35408). Description: EP4 cAMP antagonist assay (HTRF), human EP4. The class given is cell-based. Particulars: read-out: cAMP Antagonism (hEP4) Human EP4 IC50. The protocol:
Human EP4 (GenBank Accession # AY429109, Clone ID PER0400000, UMR cDNA Resource Center, Rolla, MO) was stably expressed in HEK293 cells. Rat EP4 cDNA (GenBank Accession# NM_03276) was cloned into pcDNA 3.1 vector and stably transfected into HEK293 cells. The cell lines were maintained in DMEM (invitrogen) supplemented with 10% fetal bovine serum (FBS), 1 mmol/L sodium pyruvate, 10 mmol/L HEPES, 500 μg/mL geneticin and 2 mmol/L L‐glutamine. Confluent cultures were grown at 37°C in an atmosphere containing 5% CO2. […] Immediately prior to the assay, cells were thawed with DMEM and suspended in cAMP assay buffer (HBSS with 0.1% BSA, 20 mmol/L HEPES and 200 μmol/L IBMX).
To measure the cAMP levels, cAMP‐d2 conjugate and anti cAMP‐cryptate conjugate in lysis buffer were incubated with the treated cells at room temperature for 1 h. […] The raw data were converted to cAMP (nmol/L) using a cAMP standard curve generated for each experiment. Data were analyzed using a 4‐parameter nonlinear logistic equation. Results are expressed as the geometric mean ± standard deviation or geometric mean ± standard error as noted.
(Time-resolved FRET reads energy transfer from a long-lived donor to a nearby acceptor.)

Assay [2] has as its target T1, human EP1 receptor (Homo sapiens, UniProt P34995).
T1 construct: membrane preparation
T1 sequence (P34995 1-402): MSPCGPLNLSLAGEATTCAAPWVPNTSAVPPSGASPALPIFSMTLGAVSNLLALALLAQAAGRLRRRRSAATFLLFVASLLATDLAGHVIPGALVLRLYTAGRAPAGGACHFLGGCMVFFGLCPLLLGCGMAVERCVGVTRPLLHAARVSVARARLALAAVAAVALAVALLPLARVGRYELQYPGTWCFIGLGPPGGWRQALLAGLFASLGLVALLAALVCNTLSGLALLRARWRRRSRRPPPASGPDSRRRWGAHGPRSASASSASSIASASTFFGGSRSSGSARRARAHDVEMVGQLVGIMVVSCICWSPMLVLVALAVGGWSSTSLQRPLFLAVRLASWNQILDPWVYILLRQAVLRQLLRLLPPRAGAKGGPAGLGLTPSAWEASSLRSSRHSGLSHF
Kind of assay: [3H]-PGE2 receptor binding assay, EP1 membranes. Particulars: HEK293 membranes; [3H]-PGE2; geometric mean ± SEM; read-out: hEP1-4 receptor binding EP1 Ki. The method, then:
Receptor binding assays were done using membrane preparations of HEK 293 cells transfected with various prostanoid receptors using previously published procedure (Nakao et al. 2007). EP1 and EP4 membranes were prepared from recombinant HEK293 cells stably expressing human EPl receptor (GenBank Accession # AY275470, Clone ID PER0100000, UMR cDNA Resource Center, Rolla, MO) or human EP4 receptor. EP2 and EP3 membranes were prepared from HEK293 cells transiently transfected with human EP2 receptor (GenBank Accession # AY275471, Clone ID PER0200000, UMR cDNA Resource Center, Rolla, MO) or human EP3 receptor (GenBank Accession # AY429108, Clone ID PER3VI0000, UMR cDNA Resource Center, Rolla, MO) plasmids. Frozen cell pellets were homogenized in homogenization buffer (10 mmol/L Tris‐HCl, pH7.4, 250 mmol/L sucrose, 1 mmol/L EDTA, 0.3 mmol/L indomethacin and protease inhibitor cocktail with EDTA (Roche Molecular Biochemicals, catalog # 1691498)) using a Teflon/glass homogenizer. After a low speed centrifugation (200g for 15 min at 4°C) the supernatant was subjected to high speed centrifugation (30,000g for 60 min at 4°C). Membrane protein preparation was aliquoted and quick frozen on dry ice prior to storage at −80°C. […] Compounds were tested in a 96‐well format using a three‐fold dilution series to generate 10‐point curves. […] The binding reaction was performed in 200 μL MES buffer (10 mmol/L MES, pH 6.0, 10 mmol/L MgCl2, and l mmol/L EDTA) using polystyrene 96‐well plates. […] The membranes were harvested by filtration (TomTek harvester), washed four times with cold buffer (10 mmol/L MES, pH 6.0, 10 mmol/L MgCl2), dried in a 60°C oven, and the radioactivity was quantified as counts per min (CPM) using a TopCount detector. […] Data were analyzed using a 4‐parameter nonlinear logistic equation. K i Conversion from IC50 Values (K i = […] where [L] is the ligand concentration). Results are expressed as the geometric mean ± standard deviation or geometric mean ± standard error as noted.

For assay [3], the target named is T2, COX2 (h) (Homo sapiens, UniProt P35354).
T2 construct: CEREP (contract laboratory that ran the assay)
T2 sequence (P35354 18-604): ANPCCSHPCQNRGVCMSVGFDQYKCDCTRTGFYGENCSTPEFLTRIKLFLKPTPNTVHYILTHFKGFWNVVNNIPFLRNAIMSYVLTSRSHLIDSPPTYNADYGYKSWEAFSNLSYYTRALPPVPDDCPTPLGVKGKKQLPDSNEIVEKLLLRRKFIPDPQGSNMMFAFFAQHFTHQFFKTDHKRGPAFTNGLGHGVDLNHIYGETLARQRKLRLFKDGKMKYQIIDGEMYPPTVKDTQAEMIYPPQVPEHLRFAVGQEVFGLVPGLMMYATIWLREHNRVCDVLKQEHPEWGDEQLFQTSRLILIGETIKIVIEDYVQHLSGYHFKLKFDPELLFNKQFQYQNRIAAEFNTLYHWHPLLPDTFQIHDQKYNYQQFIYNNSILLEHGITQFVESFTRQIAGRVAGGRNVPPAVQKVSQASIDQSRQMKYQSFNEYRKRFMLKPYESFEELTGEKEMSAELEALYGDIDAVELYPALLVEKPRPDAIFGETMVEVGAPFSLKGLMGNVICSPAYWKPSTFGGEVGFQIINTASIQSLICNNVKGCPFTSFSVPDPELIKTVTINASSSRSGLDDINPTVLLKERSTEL
Description: Off-target activity (CEREP), COX2. The class given is biochemical. Particulars: 10 μmol/L; obtained at CEREP (Blanco et al. 2016c); read-out: % Inh COX2 (h). An excerpt:
(§1) The off‐target activity related to prostaglandin pathway (Table 2) were obtained at CEREP (Blanco et al. 2016c).

Assay [4] addresses T3, IP (PGI2) (h), agonist radioligand (Homo sapiens, UniProt P43119).
T3 construct: CEREP (contract laboratory that ran the assay)
Kind of assay: Off-target activity (CEREP), IP. Particulars: 10 μmol/L; obtained at CEREP (Blanco et al. 2016c); read-out: % Inh IP (PGI2) (h), agonist radioligand. In kind it is binding.
Text: as §1

The source of these data is article PMC5464344, “Analgesic and anti‐inflammatory properties of novel, selective, and potent EP4 receptor antagonists” (Pharmacology Research & Perspectives, 2017).

Where two headings read alike, the source gives them in different places.

One may read the IC50 as the concentration needed to halve the response being measured. As usually defined, the Ki is the equilibrium dissociation constant of an inhibitor or competing ligand from its target.

Sequence of Human EP4 (P35408 whole entry): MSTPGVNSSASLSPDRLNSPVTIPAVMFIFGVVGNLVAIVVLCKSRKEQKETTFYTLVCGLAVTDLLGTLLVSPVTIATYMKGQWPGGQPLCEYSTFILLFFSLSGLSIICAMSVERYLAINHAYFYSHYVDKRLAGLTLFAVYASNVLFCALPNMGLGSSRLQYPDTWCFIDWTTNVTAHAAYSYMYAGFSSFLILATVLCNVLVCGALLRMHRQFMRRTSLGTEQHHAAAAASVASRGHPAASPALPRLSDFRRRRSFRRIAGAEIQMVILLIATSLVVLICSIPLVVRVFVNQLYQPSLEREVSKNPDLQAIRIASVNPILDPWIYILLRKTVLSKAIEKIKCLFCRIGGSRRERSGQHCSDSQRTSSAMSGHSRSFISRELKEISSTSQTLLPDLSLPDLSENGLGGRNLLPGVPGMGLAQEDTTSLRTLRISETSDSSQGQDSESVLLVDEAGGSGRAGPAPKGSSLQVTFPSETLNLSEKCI
T3 sequence (P43119 whole entry): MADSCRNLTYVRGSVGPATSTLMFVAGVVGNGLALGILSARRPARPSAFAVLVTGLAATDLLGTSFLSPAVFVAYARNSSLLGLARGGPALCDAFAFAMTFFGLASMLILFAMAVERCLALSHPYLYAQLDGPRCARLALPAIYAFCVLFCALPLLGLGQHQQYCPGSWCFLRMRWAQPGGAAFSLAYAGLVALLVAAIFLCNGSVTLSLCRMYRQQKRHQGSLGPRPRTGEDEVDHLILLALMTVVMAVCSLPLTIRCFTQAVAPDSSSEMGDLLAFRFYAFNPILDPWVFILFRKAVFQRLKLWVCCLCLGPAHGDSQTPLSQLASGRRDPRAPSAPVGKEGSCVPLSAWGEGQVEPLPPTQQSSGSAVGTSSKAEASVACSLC

For the molecule `C[C@H](NC(=O)c1cc(Cl)ccc1Oc1ccc(F)cc1)c1ccc(C(=O)O)cc1` [CJ‐042,794, reference compound], in assay [1], the IC50 worked out at 4.5 ± 1.85 nM. In assay [2], the inhibitory constant (Ki) is > 26700 nM.

In the case of `Cc1ccc(N2CCC(O)CC2)nc1C(=O)Nc1c(C)cc(C(=O)O)cc1C` [Compound 1], the IC50 in assay [1] is ~6 nM. The inhibition at 10 µM in assay [3] is -10%; in assay [4], -4%.

Consider `C[C@H](NC(=O)[C@H]1CCCCN1CCOc1ccccc1)c1ccc(C(=O)O)cc1` [Compound 2], for which the figures for the inhibition at 10 µM in assay [3] and in assay [4] were -17% and 9%, respectively.

As for `Cc1ccc(-c2cccc(CO)c2)nc1C(=O)Nc1c(C)ccc(C(=O)O)c1C` [Compound 3], in assay [1] (HEK293 cells stably expressing human EP4, PGE2 at EC80, geometric mean ± SEM), the 50% inhibitory concentration (IC50) was found to be 2.4 ± 1.4 nM. In addition, the Ki in assay [2] was > 17500 nM.
